Values quoted from earlier work, collected in US20120288569A1 (priority 2003, published 2012).

How the values were obtained:
[1] = test system: calcification in aortas and kidneys of rats; settings: rats treated with large amount of vitamin D3

Structure (SMILES): O=P(O)(O)OP(=O)(O)O [PPi, pyrophosphate]
- uptake by the apatite crystals (PPi at 2 μm/L concentration): rapidly and almost completely taken up
- concentration that binds strongly to crystals of hydroxyapatite, inhibiting further precipitation of calcium phosphate (in vitro): ≥ 0.1 µM
- effect on calcification in aortas and kidneys [1]: inhibits calcification
